Activity calls are given as the source filed them. No cut-off for these calls is given here.
Tests used:
MCF7 = experiment: Antiproliferative activity against human MCF7 cells assessed as inhibition of cell proliferation measured after 72 hrs by MTT assay; format: functional, cell-based; settings: MCF7, 72 h
HepG2 = experiment: Antiproliferative activity against human HepG2 cells assessed as inhibition of cell proliferation measured after 72 hrs by MTT assay; format: functional, cell-based; settings: HepG2, 72 h
A549 = experiment: Antiproliferative activity against human A549 cells assessed as inhibition of cell proliferation measured after 72 hrs by MTT assay; format: functional, cell-based; settings: A549, 72 h
MGC-803 [1] = experiment: Antiproliferative activity against human MGC-803 cells assessed as inhibition of cell proliferation measured after 72 hrs by MTT assay; format: functional, cell-based; settings: MGC-803, 72 h
SGC-7901 = experiment: Antiproliferative activity against human SGC-7901 cells assessed as inhibition of cell proliferation measured after 72 hrs by MTT assay; format: functional, cell-based; settings: SGC-7901, 72 h
MGC-803 [2] = experiment: Cytotoxicity against human MGC-803 cells assessed as reduction in cell viability at <20 uM measured after 24 hrs by CCK8 assay; format: cell-based; settings: mgc-803, 24 h
MGC-803 [3] = experiment: Cytotoxicity against human MGC-803 cells assessed as reduction in cell viability at <=10 uM measured after 48 hrs by CCK8 assay; format: cell-based; settings: mgc-803, 48 h
MGC-803 [4] = experiment: Inhibition of clonogenicity in human MGC-803 cells assessed as reduction in colony formation measured after 6 days by crystal violet staining based analysis; format: functional, cell-based; settings: dose 2-16 µM, time 6.0 day
MGC-803 [5] = experiment: Antiproliferative activity against human MGC-803 cells assessed as decrease in cell population at S-phase at 2 to 16 uM measured after 24 hrs by EdU incorporation based fluorescence microscopic analysis; format: functional; settings: dose 2-16 µM
HCT-116 [6] = experiment: Induction of cell cycle arrest in human HCT116 cells assessed as accumulation of cells at G0/G1 phase at 20 uM measured after 48 hrs by propidium iodide staining based flow cytometry analysis (reference value: 70.45%); format: functional
HCT-116 [7] = experiment: Induction of apoptosis in human HCT-116 cells assessed as viable cells at 2.5 uM measured after 48 hrs by Annexin V-FITC/PI staining based flow cytometry assay (reference value: 94.9%); format: functional; settings: read-out: Activity
HCT-116 [8] = experiment: Induction of apoptosis in human HCT-116 cells assessed as early apoptotic cells at 2.5 uM measured after 48 hrs by Annexin V-FITC/PI staining based flow cytometry assay (reference value: 2.14%); format: functional
HCT-116 [9] = experiment: Induction of apoptosis in human HCT-116 cells assessed as late apoptotic cells at 2.5 uM measured after 48 hrs by Annexin V-FITC/PI staining based flow cytometry assay (reference value: 1.42%); format: functional
HCT-116 [10] = experiment: Induction of apoptosis in human HCT-116 cells assessed as late apoptotic cells at 5 uM measured after 48 hrs by Annexin V-FITC/PI staining based flow cytometry (reference value: 1.42%); format: functional
HCT-116 [11] = experiment: Induction of apoptosis in human HCT-116 cells assessed as necrotic cells at 5 uM measured after 48 hrs by Annexin V-FITC/PI staining based flow cytometry (reference value: 1.5%); format: functional
HCT-116 [12] = experiment: Induction of apoptosis in human HCT-116 cells assessed as late apoptotic cells at 10 uM measured after 48 hrs by Annexin V-FITC/PI staining based flow cytometry (reference value: 1.42%); format: functional
HCT-116 [13] = experiment: Induction of apoptosis in human HCT-116 cells assessed as viable cells at 20 uM measured after 48 hrs by Annexin V-FITC/PI staining based flow cytometry (reference value: 94.9%); format: functional; settings: read-out: Activity
HCT-116 [14] = experiment: Induction of apoptosis in human HCT-116 cells assessed as early apoptotic cells at 20 uM measured after 48 hrs by Annexin V-FITC/PI staining based flow cytometry (reference value: 2.14%); format: functional
HCT-116 [15] = experiment: Induction of apoptosis in human HCT-116 cells assessed as late apoptotic cells at 20 uM measured after 48 hrs by Annexin V-FITC/PI staining based flow cytometry (reference value: 1.42%); format: functional
HCT-116 [16] = experiment: Induction of apoptosis in human HCT-116 cells assessed as necrotic cells at 20 uM measured after 48 hrs by Annexin V-FITC/PI staining based flow cytometry (reference value: 1.5%); format: functional
HCT-116 [17] = experiment: Induction of apoptosis in human HCT-116 cells assessed as formation of apoptotic bodies at 2.5 to 15 uM measured after 48 hrs by Giemsa staining method; format: functional, cell-based; settings: dose 2.5-15 µM
HCT-116 [18] = experiment: Induction of apoptosis in human HCT-116 cells assessed as chromatin pyknosis at 2.5 to 15 uM measured after 48 hrs by Giemsa staining method; format: functional, cell-based; settings: dose 2.5-15 µM
HCT-116 [19] = experiment: Induction of apoptosis in human HCT-116 cells assessed as plasmatorrhexis at 2.5 to 15 uM measured after 48 hrs by Giemsa staining method; format: functional, cell-based; settings: dose 2.5-15 µM
HCT-116 [20] = experiment: Antimetastatic activity against human HCT-116 cells assessed as inhibition of cell migration measured after 36 hrs by transwell assay; format: functional, cell-based; settings: dose 2.5-15 µM
HCT-116 [21] = experiment: Downregulation of STAT3 protein expression in human HCT-116 cells at 2.5 to 10 uM measured after 48 hrs by western blot assay; format: functional, cell-based; settings: dose 2.5-10 µM
[22] = molecular target: Signal transducer and activator of transcription 3 (Homo sapiens) (UniProt P40763); experiment: Inhibition of STAT3 in human HCT-116 cells assessed as decrease in STAT3 phosphorylation at 2.5 to 10 uM measured after 48 hrs by western blot assay; format: cell-based; settings: dose 2.5-10 µM
[23] = molecular target: Signal transducer and activator of transcription 3 (Homo sapiens) (UniProt P40763); experiment: Inhibition of STAT3 in human MGC-803 cells assessed as inhibition of nuclear translocation of STAT3 at 10 uM measured after 3 hrs by Hoechst/fluorochrome-conjugated antibody staining based confocal laser microscopy; format: cell-based
HCT-116 [24] = experiment: Induction of ROS generation in human HCT-116 cells at 2.5 to 15 uM measured after 36 hrs by DCFH-DA staining based fluorescence microscopic analysis; format: functional, cell-based; settings: dose 2.5-15 µM
HCT-116 [25] = experiment: Induction of apoptosis in human HCT-116 cells assessed as downregulation of cytochrome C expression at 2.5 to 10 uM measured after 48 hrs by western blot assay; format: functional, cell-based; settings: dose 2.5-10 µM
HCT-116 [26] = experiment: Induction of apoptosis in human HCT-116 cells assessed as upregulation of Bax expression at 2.5 to 10 uM measured after 48 hrs by western blot assay; format: functional, cell-based; settings: dose 2.5-10 µM
[27] = Toxicity in Kunming mouse assessed as hair condition at 1000 mg/kg, ig measured for 14 days; format: organism-based; settings: in vivo, po, 336 h, time 14 day
[28] = Toxicity in Kunming mouse assessed as feeding frequency and amount at 1000 mg/kg, ig measured for 14 days; format: organism-based; settings: in vivo, po, 336 h, time 14 day
[29] = Cmax in Sprague-Dawley rat at 100 mg/kg, ig measured for 24 hrs by LC-MS analysis; format: ADME, organism-based; design: route intragastric, time 24 hrs, dose 100 mg/kg; settings: in vivo, po
[30] = Ratio of AUC (0 to t) to observed AUC (0 to infinity) in Sprague-Dawley rat at 100 mg/kg, ig measured for 24 hrs by LC-MS analysis; format: ADME, organism-based; settings: in vivo, po
MGC-803 [31] = experiment: Induction of cell cycle arrest in human MGC-803 cells at 2.5 to 20 uM measured after 48 hrs by propidium iodide staining based flow cytometry analysis; format: functional; settings: dose 2.5-20 µM
RAW264.7 = experiment: Anti-inflammatory activity against mouse RAW264.7 cells assessed as decrease in LPS-induced TNF-alpha secretion measured after 24 hrs by ELISA; format: functional, cell-based; settings: dose 5-20 µM

Sequence of Signal transducer and activator of transcription 3 (Homo sapiens) (P40763 whole entry): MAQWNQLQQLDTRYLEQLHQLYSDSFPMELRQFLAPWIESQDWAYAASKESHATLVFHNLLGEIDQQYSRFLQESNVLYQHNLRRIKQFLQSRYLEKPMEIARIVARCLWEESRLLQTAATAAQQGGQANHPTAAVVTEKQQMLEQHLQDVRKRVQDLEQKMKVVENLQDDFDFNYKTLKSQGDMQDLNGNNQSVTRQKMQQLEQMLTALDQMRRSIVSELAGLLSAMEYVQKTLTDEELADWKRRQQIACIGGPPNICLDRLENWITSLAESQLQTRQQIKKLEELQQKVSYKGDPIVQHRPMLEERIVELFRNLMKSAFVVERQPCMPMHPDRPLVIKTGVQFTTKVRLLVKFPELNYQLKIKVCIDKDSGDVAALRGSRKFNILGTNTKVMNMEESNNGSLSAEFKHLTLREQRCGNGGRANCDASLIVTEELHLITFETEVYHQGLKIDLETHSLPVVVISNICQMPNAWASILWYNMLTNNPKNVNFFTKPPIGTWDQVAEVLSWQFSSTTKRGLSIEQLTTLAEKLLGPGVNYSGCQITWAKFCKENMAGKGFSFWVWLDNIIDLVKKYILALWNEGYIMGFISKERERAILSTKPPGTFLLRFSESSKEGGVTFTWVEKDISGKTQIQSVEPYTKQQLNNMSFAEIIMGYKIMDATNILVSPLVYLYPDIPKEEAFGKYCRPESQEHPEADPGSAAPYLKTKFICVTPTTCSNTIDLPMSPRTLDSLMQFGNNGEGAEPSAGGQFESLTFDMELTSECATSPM

`Cc1c(Cl)cccc1Nc1ccccc1C(=O)NCCc1c[nH]c2ccccc12` showed an IC50 (MCF7) of 12.8 µM, an IC50 (HepG2) of 7.37 µM and an IC50 (A549) of 18.6 µM. For the same compound, the IC50 (MGC-803 [1]) was 9.96 µM, the IC50 (SGC-7901) was 15.5 µM and the Activity (MGC-803 [2]) was “Non-Toxic”. For the same compound, the Activity (MGC-803 [3]) was “Non-Toxic”, the inhibition (MGC-803 [4]) was “Dose-Dependent Effect” and the Activity (MGC-803 [5]) was “Active”. The Activity (HCT-116 [6]) was 84.74%, the viability at 2.5 µM (HCT-116 [7]) was 91.3% and the Activity (HCT-116 [8]) was 3.48%. The Activity (HCT-116 [9]) was 3.12%, the Activity (HCT-116 [10]) was 3.94% and the Activity (HCT-116 [11]) was 2.81%. For the same compound, the Activity (HCT-116 [12]) was 6.12%, the viability at 20 µM (HCT-116 [13]) was 45.9% and the Activity (HCT-116 [14]) was 42.5%. The Activity (HCT-116 [15]) was 8.95%, the Activity (HCT-116 [16]) was 2.62% and the Activity (HCT-116 [17]) was “Active”. The Activity (HCT-116 [18]) was “Active”, the Activity (HCT-116 [19]) was “Active” and the Activity (HCT-116 [20]) was “Dose-Dependent Effect”. The inhibition (HCT-116 [21]) was “Active”, the inhibition [22] was “Active” and the inhibition [23] was “Active”. For the same compound, the Activity (HCT-116 [24]) was “Active”, the Activity (HCT-116 [25]) was “Active” and the Activity (HCT-116 [26]) was “Active”. For the same compound, the Activity [27] was “Non-Toxic”, the Activity [28] was “Non-Toxic” and the Cmax [29] was 150 ng/mL. The “Ratio AUC” value [30] was 0.87, the Activity (MGC-803 [31]) was “inactive” and the Activity (RAW264.7) was “Dose-Dependent Effect”.

— ChEMBL document CHEMBL4818998, “Melatonin derivatives combat with inflammation-related cancer by targeting the Main Culprit STAT3” (Eur J Med Chem, 2021)
